Assay results published in patent publication US20100075979A1, “PYRIDINYLPIPERAZIN DERIVATIVES USEFUL AS MODULATORS OF DOPAMINE D3 RECEPTORS” (priority 2008, published 2010).

Molecular target: T1, human D3 dopamine receptor (Homo sapiens, UniProt P35462)
T1 construct: expressed in transfected cells; host or cells: HEK-293 EBNA cells (transient transfection; membrane preparation)
Assay: Radioligand binding assay ([3H]-spiperone) on membranes of HEK-293 EBNA cells expressing human D3 receptor
Conditions: [3H]-spiperone approx. 0.5 nM, 1 h at RT, cloned human D3 in HEK-293 EBNA membranes; Ki by Cheng-Prusoff
Procedure: The ability of the compounds to bind to the D3 receptors was determined using radioligand binding to cloned receptors selectively expressed in HEK-293 EBNA cells.
HEK-293 EBNA cells were transiently transfected with expression plasmids encoding for the human D3 dopamine receptor. The cells were harvested 48 h post-transfection, washed three times with cold PBS and stored at −80° C. prior to use. The pellet was suspended in cold 50 mM
Tris-HCl buffer containing 10 mM EDTA (pH 7.4) and homogenized with a Polytron (Kinematica AG, Basel, Switzerland) for 20-30 sec at 12.000 rpm. After centrifugation at 48.000×g for 30 min at 4° C., the pellet was resuspended in cold 10 mM Tris-HCl buffer containing 0.1 mM EDTA (pH 7.4), homogenized, and centrifuged as above. This pellet was further resuspended in a smaller volume of ice cold 10 mM Tris-HCl buffer containing 0.1 mM EDTA (pH 7.4) and homogenized with a Polytron for 20-30 sec at 12.000 rpm. The protein content of this homogenate was determined with the Bio-Rad (Bradford) Protein Assay (Biorad Laboratories GmbH, München, Germany) according to the instructions of the manufacturer using gamma globulin as the standard.
This homogenate was stored at −80° C. in aliquots and thawed immediately prior to use.
Aliquots of membrane preparations were thawed at RT, resuspended in assay buffer (50 mM Tris-HCl, 120 mM NaCl, 5 mM MgCl2, 1 mM EDTA, 5 mM KCl, 1.5 mM CaCl2, pH=7.4), homogenized with a Polytron for 20-30 sec at 12.000 rpm and adjusted to a final concentration of approximately 7.5 μg protein/well.
The binding affinity (Ki) of the compounds was determined using radioligand binding. Membranes were incubated in a total volume of 200 μl with a fixed concentration of radioligand (final concentration approximately 0.5 nM [^3H]-spiperone) and ten concentrations of test compound in ranging between 10 μM-0.1 nM for 1 h at RT. At the end of the incubation, the reaction mixtures were filtered on to unifilter 96-well white microplates with bonded GF/C filters (Packard BioScience, Zurich, Switzerland; preincubated for 1 h in 0.1% polyethylenimine (PEI) in assay buffer) with a Filtermate 196 harvester (Packard BioScience) and washed 3 times with cold assay buffer. The nonspecific binding was determined with equally composed reaction mixtures in the presence of 10 μM unlabelled spiperone. Per well 45 μl of Microscint 40 (Perkin Elmer, Schwerzenbach, Switzerland) was added, plates for sealed, shaken for 20 min and counted for 3 min on a Topcount Microplate Scintillation Counter (Canberra Packard SA, Zürich, Switzerland) with quenching correction.
The CPM value for each duplicate of a concentration of competing compound was averaged (y1), then the % specific binding was calculated according to the equation (((y1−non-specific)/(total binding-non-specific))×100). Graphs were plotted with the % specific binding using XLfit, a curve fitting program that iteratively plots the data using Levenburg Marquardt algorithm. The single site competition analysis equation used was y=A+((B−A)/(1+((x/C)^D))), where y is the % specific binding, A is the minimum y, B is the maximum y, C is the IC50, x is the log10 of the concentration of the competing compound and D is the slope of the curve (the Hill Coefficient). From these curves the IC50 (inhibition concentration at which 50% specific binding of the radioligand was displaced) and Hill coefficient were determined. The affinity constant (Ki) was calculated using the Cheng-Prusoff equation Ki=(IC50/1+([L]/Kd), where [L] is the concentration of radioligand and Kd is the dissociation constant of the radioligand at the receptor as determined by the saturation isotherm.

T1 sequence (P35462 whole entry): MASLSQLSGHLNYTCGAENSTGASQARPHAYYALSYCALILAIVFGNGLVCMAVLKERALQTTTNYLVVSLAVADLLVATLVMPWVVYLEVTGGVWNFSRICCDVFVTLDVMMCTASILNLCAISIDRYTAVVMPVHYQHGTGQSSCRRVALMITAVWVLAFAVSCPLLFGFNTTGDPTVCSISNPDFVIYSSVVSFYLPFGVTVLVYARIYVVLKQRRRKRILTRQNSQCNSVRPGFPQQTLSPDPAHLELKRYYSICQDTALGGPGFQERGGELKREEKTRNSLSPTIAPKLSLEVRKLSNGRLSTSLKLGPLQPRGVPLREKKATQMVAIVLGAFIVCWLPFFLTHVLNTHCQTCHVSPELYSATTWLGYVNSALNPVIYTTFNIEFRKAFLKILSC

SMILES	Ki [nM]
CC(=O)N[C@H]1CC[C@H](CCN2CCN(c3ncc(C(F)(F)F)cc3Cl)CC2)CC1 [Example 1, N-(trans-4-{2-[4-(3-Chloro-5-trifluoromethyl-pyridin-2-yl)-piperazin-1-yl]-ethyl}-cyclohexyl)-acetamide]	9.64
CCC(=O)N[C@H]1CC[C@H](CCN2CCN(c3ncc(C(F)(F)F)cc3Cl)CC2)CC1 [Example 3, N-(trans-4-{2-[4-(3-Chloro-5-trifluoromethyl-pyridin-2-yl)-piperazin-1-yl]-ethyl}-cyclohexyl)-propionamide]	16.8
O=C(CC1CC1)N[C@H]1CC[C@H](CCN2CCN(c3ncc(C(F)(F)F)cc3Cl)CC2)CC1 [Example 4, N-(trans-4-{2-[4-(3-Chloro-5-trifluoromethyl-pyridin-2-yl)-piperazin-1-yl]-ethyl}-cyclohexyl)-2-cyclopropyl-acetamide]	10.1
CC(=O)N[C@H]1CC[C@H](CCN2CCN(c3ncccc3Cl)CC2)CC1 [Example 5, N-(trans-4-{2-[4-(3-Chloro-pyridin-2-yl)-piperazin-1-yl]-ethyl}-cyclohexyl)-acetamide]	1.7
CC(=O)N[C@H]1CC[C@H](CCN2CCN(c3ccnc(Cl)c3Cl)CC2)CC1 [Example 10, N-(trans-4-{2-[4-(2,3-Dichloro-pyridin-4-yl)-piperazin-1-yl]-ethyl}-cyclohexyl)-acetamide]	1.7

Further compounds by falling Ki, results first:

Ki [nM]	SMILES
16.8	NC(=O)CC(=O)N[C@H]1CC[C@H](CCN2CCN(c3ncc(C(F)(F)F)cc3Cl)CC2)CC1 [Example 8, N-(trans-4-{2-[4-(3-Chloro-5-trifluoromethyl-pyridin-2-yl)-piperazin-1-yl]-ethyl}-cyclohexyl)-malonamide]
10.1	COc1cccnc1N1CCN(CC[C@H]2CC[C@H](NC(C)=O)CC2)CC1 [Example 9, N-(trans-4-{2-[4-(3-Methoxy-pyridin-2-yl)-piperazin-1-yl]-ethyl}-cyclohexyl)-acetamide]
9.64	CC(=O)N[C@H]1CC[C@H](CCN2CCN(c3ncc(Cl)cc3Cl)CC2)CC1 [Example 6, N-(trans-4-{2-[4-(3,5-Dichloro-pyridin-2-yl)-piperazin-1-yl]-ethyl}-cyclohexyl)-acetamide]
5.66	COCCC(=O)N[C@H]1CC[C@H](CCN2CCN(c3ncc(C(F)(F)F)cc3Cl)CC2)CC1 [Example 2, N-(trans-4-{2-[4-(3-Chloro-5-trifluoromethyl-pyridin-2-yl)-piperazin-1-yl]-ethyl}-cyclohexyl)-3-methoxy-propionamide]
5.66	CC(=O)N[C@H]1CC[C@H](CCN2CCN(c3ccc(C(F)(F)F)nc3)CC2)CC1 [Example 7, N-(trans-4-{2-[4-(6-Trifluoromethyl-pyridin-3-yl)-piperazin-1-yl]-ethyl}-cyclohexyl)-acetamide]
